The source made the active and inactive calls.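 Rule for the calls: active = IC50 at or below 10 µM; inactive = IC50 above 10 µM.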
Target: HCV core protein (core106) dimerization, Hepatitis C virus
Test: HCV core dimerization inhibitor potency, late-stage follow-up, biochemical, TR-FRET, dose response, powder samples (AID 2488)
Conditions: GST/Flag-core106 dimerization, TR-FRET HTRF

Structure (SMILES) | IC50
CCCCCC#CCC#CCC#CCC#CCCCC(=O)O | > 49.8 µM (inactive)
CC1=C(/C=C/C(C)=C/C=C/C(C)=C/C=C/C=C(C)/C=C/C=C(C)/C=C/C2=C(C)CCCC2(C)C)C(C)(C)CCC1 | > 49.8 µM (inactive)
Cc1ccc(Cc2c(C)nc3nc(SCC(=O)NCCCN4CCCCCC4)nn3c2C)cc1 | 3.67 µM
COCCN(C(=O)COC(=O)c1cc2c(s1)CCC2)c1c(N)n(Cc2ccccc2)c(=O)[nH]c1=O | inactive
CCN(CC(=O)Nc1c(F)cccc1F)C(=O)/C=C/c1ccc2ccccc2n1 | inactive
O=C(/C=C/c1ccc(Br)o1)OCc1nc2ccsc2c(=O)[nH]1 | > 49.8 µM (inactive)
COc1ccc(NC(=O)CN(C)C(=O)c2cc3c(s2)CCC3)cc1 | inactive
Cc1ccccc1N1C(=O)/C(=C/c2ccco2)C(=O)NC1=S | inactive

— PubChem BioAssay AID2488 (The Scripps Research Institute Molecular Screening Center, 2010)
